Assay [1] addresses T1, PARP2 (Homo sapiens (Human), UniProt Q9UGN5). The assay can be described thus: PARP2 enzyme activity inhibition (chemiluminescence kit). In kind it is biochemical. On the procedure: PARP1, PARP2 and PARP7 chemical […] detection kits were all purchased from BPS Bioscience. The histone solution in the kit was diluted 5× with 1×PBS, and 25 μL of the diluted histone solution was added to a microwell plate and incubated overnight at 4° C. After the incubation was completed, the plate was washed three times with PBST (0.05% Tween-20). 25 μL of a blocking solution was added to the microwell plate and incubated at 25° C. for 90 minutes. After the incubation was completed, the plate was washed three times with PBST. 2.5 μL of compounds at different concentrations diluted in test buffer and 5 μL of 2.5× substrate mixed solution were added to the microwell plate. PARP1, PARP2 and PARP7 enzymes were diluted to 0.33, 0.23 and 5.00 ng/μL, respectively, 5 μL of the diluent was added to the microwell plate, and the reaction system was incubated at 25° C. for 60 minutes. After the incubation was completed, the plate was washed three times with PBST. […] ELISA ECL substrate A and substrate B were mixed at a ratio of 1:1 (v/v), 25 μL of the mixture was added to the microwell plate, and the chemiluminescence value was read using a BMG microplate reader.
Curve fitting was performed by four parameters (log(inhibitor) vs. response−Variable slope) using GraphPad Prism software, and the IC50 value was calculated.

The target in assay [2] is T2, PARP1 (Homo sapiens (Human), UniProt P09874). The assay is described as follows: PARP1 protein expression level in MDA-MB-231 cells. In kind it is cell-based. As to conditions: 24 hours. On the procedure: The cells were collected into a 1.5 mL centrifuge tube, 25 μL of RIPA lysis buffer (containing 1× protease inhibitor cocktail) was added, and the cells were lysed on ice for 15 minutes and centrifuged at 12000 rpm/min at 4° C. for 10 minutes. The supernatant was collected and the protein content was determined using the BCA method. […] DC50 values were calculated using a four-parameter non-linear fitting model in Graphpad 8.3.0 software.

Assay [3] addresses T2, PARP1. The assay is described as follows: PARP1 protein expression level in MDA-MB-436 cells. In kind it is cell-based. As to conditions: 24 hours. On the procedure:
(§1) MDA-MB-436 cells were placed in a complete DMEM medium (supplemented with 15% FBS; 10 μg/mL Insulin; 16 μg/mL Glutathione and 1% penicillin-streptomycin solution), and cultured at 37° C. under CO2-free conditions. The cells in the logarithmic growth phase were collected, the cell density was adjusted to 2×10^5 cells/well with the culture medium, and the cells were added to a 6-well cell culture plate at a volume of 1 mL/well. The compound to be tested was prepared to 2-fold the final concentration, 1 mL of the compounds at different concentrations were added to administration wells, a medium containing 0.2% DMSO was added to control wells, and the plate was incubated for 24 hours at 37° C. The cells were collected into a 1.5 mL centrifuge tube, 25 μL of RIPA lysis buffer (containing 1× protease inhibitor cocktail) was added, and the cells were lysed on ice for 15 minutes and centrifuged at 12000 rpm/min at 4° C. for 10 minutes. The supernatant was collected and the protein content was determined using the BCA method. The protein sample to be tested was diluted to 0.8 mg/mL, PARP1 was detected using a fully automated protein expression quantitative analyzer (ProteinSimple), and the internal reference protein was 3-actin (both antibodies were from CST). The software (Compass for SW) of the fully automated protein expression quantitative analyzer was used to process the raw data and calculate the peak area and the PARP1 expression rate relative to the control group.
as §1, with “L-15” for “DMEM”, “mL/well and cultured overnight. On day 2, the” for “mL/well. The”, “group. DC50 values were calculated using a four-parameter non-linear fitting model in Graphpad 8.3.0 software.” for “group.”

Assay [4] addresses T1, PARP2. The assay can be described thus: PARP2 protein expression level in MDA-MB-436 cells. It counts as cell-based. On the procedure: as §1, with “L-15” for “DMEM”, “mL/well and cultured overnight. On day 2, the” for “mL/well. The”, “The cells were collected into a 1.5 mL centrifuge tube, 25 μL of RIPA lysis buffer (containing 1× protease inhibitor cocktail) was added, and the cells were lysed on ice for 15 minutes and centrifuged at 12000 rpm/min at 4° C. for 10 minutes.” left out, “2” for “0.8”, “PARP2” for “PARP1”, “group. DC50 values were calculated using a four-parameter non-linear fitting model in Graphpad 8.3.0 software.” for “group.”

T1 sequence (Q9UGN5 whole entry): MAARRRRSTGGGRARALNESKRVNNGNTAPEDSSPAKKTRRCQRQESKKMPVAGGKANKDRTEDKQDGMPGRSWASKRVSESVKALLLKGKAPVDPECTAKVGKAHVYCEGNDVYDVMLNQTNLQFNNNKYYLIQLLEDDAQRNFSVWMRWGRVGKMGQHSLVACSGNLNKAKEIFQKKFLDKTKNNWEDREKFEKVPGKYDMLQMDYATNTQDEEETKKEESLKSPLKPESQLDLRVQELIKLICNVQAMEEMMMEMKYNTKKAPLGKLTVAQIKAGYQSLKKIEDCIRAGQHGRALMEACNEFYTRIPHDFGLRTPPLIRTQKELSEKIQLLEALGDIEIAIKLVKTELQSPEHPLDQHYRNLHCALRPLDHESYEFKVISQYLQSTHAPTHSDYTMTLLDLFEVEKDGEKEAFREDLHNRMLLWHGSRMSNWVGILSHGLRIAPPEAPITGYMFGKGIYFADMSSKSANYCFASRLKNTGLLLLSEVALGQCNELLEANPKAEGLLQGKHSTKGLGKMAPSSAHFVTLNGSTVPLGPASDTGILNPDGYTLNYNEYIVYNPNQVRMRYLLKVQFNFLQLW
T2 sequence (P09874 whole entry): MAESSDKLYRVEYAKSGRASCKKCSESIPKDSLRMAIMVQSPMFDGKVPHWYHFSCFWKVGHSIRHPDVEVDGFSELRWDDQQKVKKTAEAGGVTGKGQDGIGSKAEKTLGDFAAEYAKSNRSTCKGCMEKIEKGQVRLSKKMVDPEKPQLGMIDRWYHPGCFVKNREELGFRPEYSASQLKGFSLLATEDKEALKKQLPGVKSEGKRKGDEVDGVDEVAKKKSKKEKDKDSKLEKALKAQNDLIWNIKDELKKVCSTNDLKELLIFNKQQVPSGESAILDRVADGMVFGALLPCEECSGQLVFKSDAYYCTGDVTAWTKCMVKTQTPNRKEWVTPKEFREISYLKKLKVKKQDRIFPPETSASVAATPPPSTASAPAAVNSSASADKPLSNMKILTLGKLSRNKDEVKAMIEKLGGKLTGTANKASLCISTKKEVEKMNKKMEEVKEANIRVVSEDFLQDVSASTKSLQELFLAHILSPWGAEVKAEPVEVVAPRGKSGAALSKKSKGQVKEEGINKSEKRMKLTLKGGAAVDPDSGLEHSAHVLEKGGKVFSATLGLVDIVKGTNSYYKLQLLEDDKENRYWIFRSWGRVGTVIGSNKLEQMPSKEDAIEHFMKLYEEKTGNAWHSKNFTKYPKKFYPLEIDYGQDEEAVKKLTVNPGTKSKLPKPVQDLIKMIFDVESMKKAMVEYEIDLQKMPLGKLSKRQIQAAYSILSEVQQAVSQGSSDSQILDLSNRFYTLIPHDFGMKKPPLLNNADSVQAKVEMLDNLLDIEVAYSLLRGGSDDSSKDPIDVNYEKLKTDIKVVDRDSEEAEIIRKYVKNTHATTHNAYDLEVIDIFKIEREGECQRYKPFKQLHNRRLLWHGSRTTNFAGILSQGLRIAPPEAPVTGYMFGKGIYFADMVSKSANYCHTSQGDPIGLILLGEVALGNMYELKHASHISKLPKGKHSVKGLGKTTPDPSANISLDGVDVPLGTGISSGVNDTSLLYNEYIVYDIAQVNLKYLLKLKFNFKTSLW

The term IC50 denotes the midpoint of a concentration-inhibition curve. The low end stands for higher potency, the high end for lower potency. On PARP2 [1], `CCc1cc2ncc(CN3CCN(c4ccc(C(=O)NC5CCN(c6ccc7c(c6)C(=O)N(C6CCC(=O)NC6=O)C7=O)CC5)nc4)CC3)cc2[nH]c1=O` (stereo not drawn) [Compound 10, N-(1-(2-(2,6-dioxopiperidin-3-yl)-1,3-dioxoisoindolin-5-yl)piperidin-4-yl)-5-(4-((7-ethyl-6-oxo-5,6-dihydro-1,5-naphthyridin-3-yl)methyl)piperazin-1-yl)picolinamide] registered an IC50 of 41 nM. Besides, the DC50 was 0.12 nM at PARP1 [2], 0.014 nM on PARP1 [3] and > 10000 nM on PARP2 [4] (24 hours). Also, on PARP1 [3] (100 nM), the “PARP1 degradation rate @ 100 nM” value was 79%. Besides, at PARP2 [4], the “PARP1 degradation selectivity over PARP2” value is reported as “good PARP1 degradation selectivity”.

The record behind these values is patent US20250222116A1, “PARP-1 DEGRADATION AGENT AND USE THEREOF” (XIZANG HAISCO PHARMACEUTICAL CO., LTD., priority 2021, published 2025).
